Organism: Rattus norvegicus
Test: Open TG-GATES - Regimen: Single
Format: toxicity, organism-based, Sprague-Dawley
Parameters: regimen Single, gender Male, age 6 weeks
Conditions: in vivo, po, 2000 mg/kg, route gavage, dose level High; for APTT / Bas / Eos / Fbg / Hb / Ht / Lym / MCH / MCHC / MCV / Mono / Neu / PT / Plat / RBC / Ret / WBC: tissue Blood; for KIDNEY_L / KIDNEY_R / KIDNEY_TOTAL: tissue Kidney; for LIVER: tissue Liver; for A/G / ALP / ALT / AST / BUN / CRE / Ca / Cl / DBIL / GLC / IP / K / LDH / Na / PL / RALB / TBIL / TC / TG / TP / gamma-GTP: tissue Plasma

COc1ccc(O)c(C(C)(C)C)c1.COc1ccc(O)cc1C(C)(C)C [BUTYLATED HYDROXYANISOLE]
TERMINAL_BW (3 h): 203.7 g
APTT (3 h): 15.1 s
Bas (3 h): 0.1%
Eos (3 h): 0.6%
Fbg (3 h): 266 mg/dL
Hb (3 h): 13.4 g/dL
Ht (3 h): 39%
Lym (3 h): 75.5%
MCH (3 h): 21.4 pg
MCHC (3 h): 34.3%
MCV (3 h): 62.3 fL
Mono (3 h): 1.9%
Neu (3 h): 20.8%
PT (3 h): 12.1 s
Plat (3 h): 140.3 x10_4/uL
RBC (3 h): 626.2 x10_4/ul
Ret (3 h): 8.2%
WBC (3 h): 81.2 x10_2/uL
KIDNEY_L (3 h): 0.9 g
KIDNEY_R (3 h): 0.8 g
KIDNEY_TOTAL (3 h): 1.7 g
LIVER (3 h): 7.8 g
A/G (3 h): 0.9
ALP (3 h): 1489.2 IU/L
ALT (3 h): 51.4 IU/L
AST (3 h): 79 IU/L
BUN (3 h): 9.4 mg/dL
CRE (3 h): 0.2 mg/dL
Ca (3 h): 10.9 mg/dL
Cl (3 h): 105.8 meq/L
DBIL (3 h): 0.028 mg/dL
GLC (3 h): 174.6 mg/dL
IP (3 h): 10 mg/dL
K (3 h): 3.6 meq/L
LDH (3 h): 63.6 IU/L
Na (3 h): 142 meq/L
PL (3 h): 119 mg/dL
RALB (3 h): 2.7 g/dL
TBIL (3 h): 0.096 mg/dL
TC (3 h): 70.4 mg/dL
TG (3 h): 55.4 mg/dL
TP (3 h): 5.7 g/dL
gamma-GTP (3 h): 1 IU/L
TERMINAL_BW (6 h): 202.1 g
APTT (6 h): 16.4 s
Bas (6 h): 0.2%
Eos (6 h): 0.6%
Fbg (6 h): 267.6 mg/dL
Hb (6 h): 13.5 g/dL
Ht (6 h): 39.6%
Lym (6 h): 68.4%
MCH (6 h): 20.9 pg
MCHC (6 h): 34.2%
MCV (6 h): 61.1 fL
Mono (6 h): 2.8%
Neu (6 h): 27%
PT (6 h): 12.6 s
Plat (6 h): 154.9 x10_4/uL
RBC (6 h): 646.8 x10_4/ul
Ret (6 h): 7.5%
WBC (6 h): 78.3 x10_2/uL
KIDNEY_L (6 h): 0.9 g
KIDNEY_R (6 h): 0.9 g
KIDNEY_TOTAL (6 h): 1.7 g
LIVER (6 h): 7.7 g
A/G (6 h): 0.8
ALP (6 h): 1463.6 IU/L
ALT (6 h): 49 IU/L
AST (6 h): 73.8 IU/L
BUN (6 h): 11.2 mg/dL
CRE (6 h): 0.2 mg/dL
Ca (6 h): 10.8 mg/dL
Cl (6 h): 106.8 meq/L
DBIL (6 h): 0.024 mg/dL
GLC (6 h): 172.4 mg/dL
IP (6 h): 10.4 mg/dL
K (6 h): 4 meq/L
LDH (6 h): 62.4 IU/L
Na (6 h): 141.8 meq/L
PL (6 h): 124.2 mg/dL
RALB (6 h): 2.6 g/dL
TBIL (6 h): 0.084 mg/dL
TC (6 h): 75.8 mg/dL
TG (6 h): 40.8 mg/dL
TP (6 h): 5.8 g/dL
gamma-GTP (6 h): 1.2 IU/L
TERMINAL_BW (9 h): 199.8 g
APTT (9 h): 17.5 s
Bas (9 h): 0.2%
Eos (9 h): 0.7%
Fbg (9 h): 289 mg/dL
Hb (9 h): 13.9 g/dL
Ht (9 h): 40.9%
Lym (9 h): 68.4%
MCH (9 h): 20.7 pg
MCHC (9 h): 34%
MCV (9 h): 60.9 fL
Mono (9 h): 1.6%
Neu (9 h): 28.5%
PT (9 h): 13 s
Plat (9 h): 141.5 x10_4/uL
RBC (9 h): 671.8 x10_4/ul
Ret (9 h): 7%
WBC (9 h): 76.1 x10_2/uL
KIDNEY_L (9 h): 0.9 g
KIDNEY_R (9 h): 0.9 g
KIDNEY_TOTAL (9 h): 1.8 g
LIVER (9 h): 7.2 g
A/G (9 h): 0.8
ALP (9 h): 1379.8 IU/L
ALT (9 h): 40.8 IU/L
AST (9 h): 69 IU/L
BUN (9 h): 9.2 mg/dL
CRE (9 h): 0.2 mg/dL
Ca (9 h): 10.9 mg/dL
Cl (9 h): 108.2 meq/L
DBIL (9 h): 0.03 mg/dL
GLC (9 h): 167.6 mg/dL
IP (9 h): 10.2 mg/dL
K (9 h): 4 meq/L
LDH (9 h): 58.6 IU/L
Na (9 h): 143.6 meq/L
PL (9 h): 141.4 mg/dL
RALB (9 h): 2.7 g/dL
TBIL (9 h): 0.096 mg/dL
TC (9 h): 87.6 mg/dL
TG (9 h): 42.2 mg/dL
TP (9 h): 5.9 g/dL
gamma-GTP (9 h): 1 IU/L
TERMINAL_BW (24 h): 207.8 g
APTT (24 h): 16.8 s
Bas (24 h): 0.2%
Eos (24 h): 0.8%
Fbg (24 h): 289.8 mg/dL
Hb (24 h): 13.7 g/dL
Ht (24 h): 39.6%
Lym (24 h): 78.6%
MCH (24 h): 21.2 pg
MCHC (24 h): 34.6%
MCV (24 h): 61.3 fL
Mono (24 h): 2.2%
Neu (24 h): 17.4%
PT (24 h): 12.3 s
Plat (24 h): 155.8 x10_4/uL
RBC (24 h): 646.8 x10_4/ul
Ret (24 h): 5.8%
WBC (24 h): 68 x10_2/uL
KIDNEY_L (24 h): 0.9 g
KIDNEY_R (24 h): 0.9 g
KIDNEY_TOTAL (24 h): 1.8 g
LIVER (24 h): 9.3 g
A/G (24 h): 0.8
ALP (24 h): 1603 IU/L
ALT (24 h): 53 IU/L
AST (24 h): 73.6 IU/L
BUN (24 h): 12.6 mg/dL
CRE (24 h): 0.2 mg/dL
Ca (24 h): 11.5 mg/dL
Cl (24 h): 108.6 meq/L
DBIL (24 h): 0.044 mg/dL
GLC (24 h): 155.2 mg/dL
IP (24 h): 8.5 mg/dL
K (24 h): 4.2 meq/L
LDH (24 h): 82.4 IU/L
Na (24 h): 142.8 meq/L
PL (24 h): 152.2 mg/dL
RALB (24 h): 2.7 g/dL
TBIL (24 h): 0.088 mg/dL
TC (24 h): 93.4 mg/dL
TG (24 h): 217 mg/dL
TP (24 h): 5.9 g/dL
gamma-GTP (24 h): 1 IU/L

From ChEMBL document CHEMBL3885861, “Open TG-GATES”
